52 compounds from the PolyMetriX glass transition set can be followed below.

With `*/C=C/c1ccc(N(c2ccc(/C=C/c3ccc4c5ccc(*)cc5n(CC(CC)CCCC)c4c3)cc2)c2ccc(OCC(CC)CCCC)cc2)cc1` (repeat unit), the glass transition temperature worked out at 132.00 °C.

`*C(=O)Nc1ccc(C2(c3ccc(NC(=O)c4ccc5c(c4)C(=O)N(c4ccc(-c6ccc(N7C(=O)c8ccc(*)cc8C7=O)c(OC)c6)cc4OC)C5=O)cc3)c3ccccc3-c3ccccc32)cc1` (repeat unit) yielded a glass transition temperature of 181.00 °C.

The compound `*C(=O)c1ccc2c(c1)C(=O)N(c1ccc(C3(C)CC(C)(C)c4ccc(N5C(=O)c6ccc(*)cc6C5=O)cc43)cc1)C2=O` (repeat unit) showed a glass transition temperature of 320.00 °C.

Regarding `*C(=O)c1ccc2c(c1)C(=O)N(c1ccc(N(c3ccc(C#N)cc3)c3ccc(N4C(=O)c5ccc(*)cc5C4=O)cc3)cc1)C2=O` (repeat unit), the glass transition temperature was 315.00 °C.

Compound `*C(=O)c1ccc2c(c1)C(=O)N(c1ccc(Oc3cccc(N4C(=O)c5ccc(*)cc5C4=O)c3)cc1)C2=O` (repeat unit) returned a glass transition temperature of 280.50 °C.

The compound `*C(=O)c1ccc2c(c1)C(=O)N(c1ccc(Sc3ccc(N4C(=O)c5ccc(*)cc5C4=O)cn3)nc1)C2=O` (repeat unit) displayed a glass transition temperature of 246.00 °C.

`*C(=O)c1ccc2c(c1)C(=O)N(c1cccc(C#Cc3cccc(N4C(=O)c5ccc(*)cc5C4=O)c3)c1)C2=O` (repeat unit) yielded a glass transition temperature of 294.00 °C.

Turning to `*CCCc1ccc(-c2c(-c3ccccc3)cc(-c3ccc(-c4cc(-c5ccccc5)c(-c5ccc(*)cc5)c(-c5ccccc5)c4-c4ccccc4)cc3)c(-c3ccccc3)c2-c2ccccc2)cc1` (repeat unit), the glass transition temperature stood at 290.00 °C.

For `*CCCc1ccc(-c2c(-c3ccccc3)cc(-c3cccc(-c4cc(-c5ccccc5)c(-c5ccc(*)cc5)c(-c5ccccc5)c4-c4ccccc4)c3)c(-c3ccccc3)c2-c2ccccc2)cc1` (repeat unit), the glass transition temperature amounted to 240.00 °C.

`*CCOC(=O)c1ccc(C(C)(CC)c2ccc(C(=O)O*)cc2)cc1` (repeat unit) gave a glass transition temperature of 95.00 °C.

Compound `*CNC(=O)OCC(OC(=O)NCc1ccc(C(C)(C)c2ccc(*)o2)o1)c1ccco1` (repeat unit) came in with a glass transition temperature of 20.00 °C.

`*CNC(=O)OCCOC(=O)NCc1ccc(C(C)(C)c2ccc(*)o2)o1` (repeat unit) registered a glass transition temperature of 50.00 °C.

The compound `*CNC(=O)OCc1ccc(COC(=O)NCc2ccc(C(C)(C)c3ccc(*)o3)o2)o1` (repeat unit) came in with a glass transition temperature of 55.00 °C.

`*CNC(=O)OCc1cocc1COC(=O)NCc1ccc(C(C)(C)c2ccc(*)o2)o1` (repeat unit) came in with a glass transition temperature of 25.00 °C.

In the case of `*Cc1ccc(C(C)(C)c2ccc(CN3C(=O)c4ccc(-c5ccc6c(c5)C(=O)N(*)C6=O)cc4C3=O)o2)o1` (repeat unit), the glass transition temperature was 129.00 °C.

Turning to `*Cc1ccc(C(C)(C)c2ccc(CN3C(=O)c4ccc(C(c5ccc6c(c5)C(=O)N(*)C6=O)(C(F)(F)F)C(F)(F)F)cc4C3=O)o2)o1` (repeat unit), the glass transition temperature amounted to 134.00 °C.

In the case of `*Cc1ccc(C(C)(CC)c2ccc(Cn3c(=O)c4cc5c(=O)n(*)c(=O)c5cc4c3=O)o2)o1` (repeat unit), the glass transition temperature stood at 143.00 °C.

Regarding `*Cc1ccc(C(C)(CCC)c2ccc(Cn3c(=O)c4cc5c(=O)n(*)c(=O)c5cc4c3=O)o2)o1` (repeat unit), the glass transition temperature came out at 134.00 °C.

The compound `*Cc1ccc(C(C)c2ccc(Cn3c(=O)c4cc5c(=O)n(*)c(=O)c5cc4c3=O)o2)o1` (repeat unit) yielded a glass transition temperature of 116.00 °C.

On to `*OS(=O)(=O)c1cc(S(=O)(=O)Oc2ccc(C3(c4ccc(*)cc4)CCCCC3)cc2)ccc1C` (repeat unit), for which the glass transition temperature came out at 142.00 °C.

`*Oc1ccc(C(=O)c2ccc(OC(=O)c3ccc(C(C)(C)c4ccc(C(*)=O)cc4)cc3)cc2)cc1` (repeat unit) returned a glass transition temperature of 130.00 °C.

`*Oc1ccc(C(C)(C)c2ccc(OC(=O)c3ccc(C(C)(CC)c4ccc(C(*)=O)cc4)cc3)cc2)cc1` (repeat unit) had a glass transition temperature of 211.00 °C.

In the case of `*Oc1ccc(C(c2ccc(Oc3ccc(C(=O)c4ccc(C(C)(C)c5ccc(C(=O)c6ccc(*)cc6)cc5)cc4)cc3)cc2)(C(F)(F)F)C(F)(F)F)cc1` (repeat unit), the glass transition temperature was 179.00 °C.

On to `*Oc1ccc(Cc2ccc(OC(=O)c3ccc(C(C)(C)c4ccc(C(*)=O)cc4)cc3)cc2)cc1` (repeat unit), for which the glass transition temperature came out at 140.00 °C.

`*Oc1ccc(OC(=O)c2ccc([Si](C)(C)c3ccc(C(*)=O)cc3)cc2)cc1` (repeat unit): the glass transition temperature is 176.00 °C.

`*Sc1ccc(C(=O)c2ccc(C(C)(C)c3ccc(C(=O)c4ccc(*)cc4)cc3)cc2)cc1` (repeat unit) displayed a glass transition temperature of 175.00 °C.

For `*c1ccc(-c2ccc(N3C(=O)c4ccc(-c5ccc6c(c5)C(=O)N(*)C6=O)cc4C3=O)c(C)c2)cc1C` (repeat unit), the glass transition temperature is 302.00 °C.

Take `*c1ccc(C(*)C)cc1` (repeat unit): the glass transition temperature is 93.00 °C.

As for `*c1ccc(C(C#N)(C(=O)O)C(*)(C#N)C(=O)O)cc1` (repeat unit), the glass transition temperature was found to be 108.00 °C.

In the case of `*c1ccc(C(C#N)(C(=O)OCCCC)C(*)(C#N)C(=O)OCCCC)cc1` (repeat unit), the glass transition temperature worked out at 108.00 °C.

`*c1ccc(C(C)(C)c2ccc(N3C(=O)c4ccc(Oc5ccc(Oc6ccc7c(c6)C(=O)N(*)C7=O)cc5)cc4C3=O)cc2)cc1` (repeat unit) came in with a glass transition temperature of 264.00 °C.

`*c1ccc(C(Cl)(Cl)C(*)Cl)cc1` (repeat unit) came in with a glass transition temperature of 160.00 °C.

Compound `*c1ccc(C(c2ccc(C#N)cc2)c2ccc(N(*)c3ccc(C)cc3)cc2)cc1` (repeat unit) had a glass transition temperature of 230.00 °C.

For the compound `*c1ccc(C(c2ccc(C(=O)OC)cc2)c2ccc(N(*)c3ccc(C)cc3)cc2)cc1` (repeat unit), the glass transition temperature was 222.00 °C.

`*c1ccc(C2(c3ccc(-c4cc(-c5ccccc5)c5cc(-c6ccc7nc(*)cc(-c8ccccc8)c7c6)ccc5n4)cc3)c3ccccc3-c3ccccc32)cc1` (repeat unit) came in with a glass transition temperature of 420.00 °C.

With `*c1ccc(CCc2ccc(N3C(=O)C(=O)N(c4ccc(CCc5ccccc5N5C(=O)C(=O)N(*)C5=O)cc4)C3=O)cc2)cc1` (repeat unit), the glass transition temperature came out at 220.00 °C.

Compound `*c1ccc(Cc2ccc(-n3nc(-c4ccccc4)cc3-c3ccc(-c4cc(-c5ccccc5)nn4*)cc3)cc2)cc1` (repeat unit) showed a glass transition temperature of 252.00 °C.

`*c1ccc(Cc2ccc(N3C(=O)C4CCC5C(=O)N(*)C(=O)C5C4C3=O)cc2)cc1` (repeat unit) displayed a glass transition temperature of 341.00 °C.

Compound `*c1ccc(Cc2ccc(N3C(=O)N(c4ccc(Cc5ccc(N6C(=O)N(*)C(C)(C)C6=O)cc5)cc4)C(=O)C3(C)C)cc2)cc1` (repeat unit) returned a glass transition temperature of 259.50 °C.

For the compound `*c1ccc(Cc2ccc(N3C(=O)c4c(c(-c5ccccc5)c(-c5ccc(Oc6ccc(-c7c(-c8ccccc8)c8c(c(-c9ccccc9)c7-c7ccccc7)C(=O)N(*)C8=O)cc6)cc5)c(-c5ccccc5)c4-c4ccccc4)C3=O)cc2)cc1` (repeat unit), the glass transition temperature came to 356.00 °C.

`*c1ccc(Cc2ccc(N3C(=O)c4ccc(Oc5ccc(Oc6ccc7c(c6)C(=O)N(*)C7=O)cc5)cc4C3=O)c(C)c2C)c(C)c1C` (repeat unit) registered a glass transition temperature of 277.00 °C.

For the compound `*c1ccc(N(c2ccc(C#N)cc2)c2ccc(N3C(=O)c4ccc(Oc5ccc(C6(c7ccc(Oc8ccc9c(c8)C(=O)N(*)C9=O)cc7)c7ccccc7-c7ccccc76)cc5)cc4C3=O)cc2)cc1` (repeat unit), the glass transition temperature worked out at 279.00 °C.

In turn, `*c1ccc(OC(=O)c2ccc([Si](C)(C)c3ccc(C(=O)Oc4ccc(C5(*)OC(=O)c6ccccc65)cc4)cc3)cc2)cc1` (repeat unit) gave a glass transition temperature of 214.00 °C.

The compound `*c1ccc(OC(=O)c2ccc([Si](C)(C)c3ccc(C(=O)Oc4ccc(C5(*)c6ccccc6C(=O)N5c5ccccc5)cc4)cc3)cc2)cc1` (repeat unit) had a glass transition temperature of 255.00 °C.

Turning to `*c1ccc(OCCCCCCOc2ccc(C3C4C(=O)N(c5ccc(N6C(=O)C7ON(C)C(*)C7C6=O)cc5)C(=O)C4ON3C)cc2)cc1` (repeat unit), the glass transition temperature came to 52.00 °C.

`*c1ccc(Oc2ccc(-c3c(-c4ccccc4)c4c(c(-c5ccccc5)c3-c3ccccc3)C(=O)N(c3ccc(N5C(=O)c6c(c(-c7ccccc7)c(-c7ccccc7)c(*)c6-c6ccccc6)C5=O)cc3)C4=O)cc2)cc1` (repeat unit) displayed a glass transition temperature of 371.00 °C.

On to `*c1ccc2c(c1)C(=O)N(c1ccc(-c3ccc(N4C(=O)c5ccc(C(*)(C(F)(F)F)C(F)(F)F)cc5C4=O)c(C)c3)cc1C)C2=O` (repeat unit), for which the glass transition temperature stood at 352.00 °C.

As for `*c1ccc2c(c1)C(=O)N(c1ccc(-c3ccc(N4C(=O)c5ccc(C(*)(C(F)(F)F)C(F)(F)F)cc5C4=O)c(OC(=O)/C=C/c4ccccc4)c3)cc1OC(=O)/C=C/c1ccccc1)C2=O` (repeat unit), the glass transition temperature was 181.00 °C.

In the case of `*c1ccc2c(c1)C(=O)N(c1ccc(-c3ccc(N4C(=O)c5ccc(C(*)(C(F)(F)F)C(F)(F)F)cc5C4=O)c(OCCOc4ccc5c(C)cc(=O)oc5c4)c3)cc1OCCOc1ccc3c(C)cc(=O)oc3c1)C2=O` (repeat unit), the glass transition temperature was determined as 132.00 °C.

In turn, `*c1ccc2c(c1)C(=O)N(c1ccc(C3(c4ccc(N5C(=O)c6ccc(C(*)(C(F)(F)F)C(F)(F)F)cc6C5=O)c(C(C)C)c4)c4ccccc4-c4ccccc43)cc1C(C)C)C2=O` (repeat unit) registered a glass transition temperature of 299.00 °C.

As for `*c1ccc2c(c1)C(=O)N(c1ccc(Oc3c(C(C)(C)C)cc(-c4ccc(N5C(=O)c6ccc(C(*)(C(F)(F)F)C(F)(F)F)cc6C5=O)cc4)cc3C(C)(C)C)c(C(F)(F)F)c1)C2=O` (repeat unit), the glass transition temperature came out at 362.50 °C.

As to `*c1ccc2c(c1)C(=O)N(c1ccc(Oc3c(C(C)(C)C)cc(-c4ccc(N5C(=O)c6ccc(C(*)(C(F)(F)F)C(F)(F)F)cc6C5=O)cc4)cc3C(C)(C)C)cc1)C2=O` (repeat unit), the glass transition temperature came to 355.00 °C.
